Experimental data from patent US20150252047A1, “SUBSTITUTED INDAZOL-PYRROLOPYRIMIDINES USEFUL IN THE TREATMENT OF HYPERPROLIFERATIVE DISEASES” (BAYER PHARMA AKTIENGESELLSCHAFT, priority 2012, published 2015).

The molecules below were run against T1, human full-length MKNK1 (Homo sapiens, UniProt Q9BUB5, T385D) (assay: MKNK1 kinase high ATP assay (TR-FRET)). Conditions: high ATP (2 mM final), 15 min preincubation with enzyme, 30 min reaction at 22° C.
T1 construct: GST (N); purchased Carna Biosciences 02-145; host or cells: insect cells (baculovirus expression system)
T1 sequence (Q9BUB5 1-424 isoform Q9BUB5-2 T344D): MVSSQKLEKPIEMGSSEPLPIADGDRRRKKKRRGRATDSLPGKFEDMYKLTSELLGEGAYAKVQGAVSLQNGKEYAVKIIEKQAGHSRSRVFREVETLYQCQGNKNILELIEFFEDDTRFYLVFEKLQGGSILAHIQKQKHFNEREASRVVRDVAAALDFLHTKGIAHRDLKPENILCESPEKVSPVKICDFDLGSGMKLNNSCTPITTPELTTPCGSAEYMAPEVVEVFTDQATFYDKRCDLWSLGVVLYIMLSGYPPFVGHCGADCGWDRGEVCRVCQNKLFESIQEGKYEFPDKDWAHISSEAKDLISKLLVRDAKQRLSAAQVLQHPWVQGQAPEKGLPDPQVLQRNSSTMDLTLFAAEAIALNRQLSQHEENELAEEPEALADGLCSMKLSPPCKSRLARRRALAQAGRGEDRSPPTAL
Assay type: biochemical
Procedure: MKNK1-inhibitory activity at high ATP of compounds of the present invention after their preincubation with MKNK1 was quantified employing the TR-FRET-based MKNK1 high ATP assay as described in the following paragraphs.
A recombinant fusion protein of Glutathione-S-Transferase (GST, N-terminally) and human full-length MKNK1 (amino acids 1-424 and T344D of accession number BAA 19885.1), expressed in insect cells using baculovirus expression system and purified via glutathione sepharose affinity chromatography, was purchased from Carna Biosciences (product no 02-145) and used as enzyme. As substrate for the kinase reaction the biotinylated peptide biotin-Ahx-IKKRKLTRRKSLKG (C-terminus in amide form) was used, which can be purchased e.g. from the company Biosyntan (Berlin-Buch, Germany).
For the assay 50 nL of a 100 fold concentrated solution of the test compound in DMSO was pipetted into a black low volume 384 well microtiter plate (Greiner Bio-One, Frickenhausen, Germany), 2 μL of a solution of MKNK1 in aqueous assay buffer [50 mM HEPES pH 7.5, 5 mM MgCl2, 1.0 mM dithiothreitol, 0.005% (v/v) Nonidet-P40 (Sigma)] was added and the mixture was incubated for 15 min at 22° C. to allow pre-binding of the test compounds to the enzyme before the start of the kinase reaction. Then the kinase reaction was started by the addition of 3 μL of a solution of adenosine-tri-phosphate (ATP, 3.3 mM=>final conc. in the 5 μL assay volume is 2 mM) and substrate (0.1 μM=>final conc. in the 5 μL assay volume is 0.06 μM) in assay buffer and the resulting mixture was incubated for a reaction time of 30 min at 22° C. The concentration of MKNK1 was adjusted depending of the activity of the enzyme lot and was chosen appropriate to have the assay in the linear range, typical concentrations were in the range of 0.003 μg/mL. The reaction was stopped by the addition of 5 μL of a solution of TR-FRET detection reagents (5 nM streptavidine-XL665 [Cisbio Bioassays, Codolet, France] and 1 nM anti-ribosomal protein S6 (pSer236)-antibody from Invitrogen [#44921G] and 1 nM LANCE EU-W1024 Labeled ProteinG [Perkin-Elmer, product no. AD0071]) in an aqueous EDTA-solution (100 mM EDTA, 0.1% (w/v) bovine serum albumin in 50 mM HEPES pH 7.5).
The resulting mixture was incubated for 1 h at 22° C. to allow the formation of complex between the phosphorylated biotinylated peptide and the detection reagents. Subsequently the amount of phosphorylated substrate was evaluated by measurement of the resonance energy transfer from the Eu-chelate to the streptavidine-XL. Therefore, the fluorescence emissions at 620 nm and 665 nm after excitation at 350 nm were measured in a TR-FRET reader, e.g. a Rubystar (BMG Labtechnologies, Offenburg, Germany) or a Viewlux (Perkin-Elmer). The ratio of the emissions at 665 nm and at […] was taken as the measure for the amount of phosphorylated substrate. The data were normalised (enzyme reaction without inhibitor=0% inhibition, all other assay components but no enzyme=100% inhibition).

Row | Structure (SMILES) | IC50
1 | COc1cc2[nH]ncc2cc1Nc1ncnc2[nH]cc(F)c12 [Example 3, 5-fluoro-N-(6-methoxy-1H-indazol-5-yl)-7H-pyrrolo[2,3-d]pyrimidin-4-amine] | 5 nM
2 | CCc1[nH]c2ncnc(Nc3cc4cn[nH]c4cc3OC(C)C)c2c1C [Example 27, 6-Ethyl-5-methyl-N-[6-(propan-2-yloxy)-1H-indazol-5-yl]-7H-pyrrolo[2,3-d]pyrimidin-4-amine] | 3 nM
3 | Fc1cc2[nH]ncc2cc1Nc1ncnc2[nH]cc(F)c12 [Example 9, 5-Fluoro-N-(6-fluoro-1H-indazol-5-yl)-7H-pyrrolo[2,3-d]pyrimidin-4-amine] | 29 nM
4 | CC(C)Oc1cc2[nH]ncc2cc1Nc1ncnc2[nH]c(CCCO)cc12 [Example 33, 3-(4-{[6-(Propan-2-yloxy)-1H-indazol-5-yl]amino}-7H-pyrrolo[2,3-d]pyrimidin-6-yl)propan-1-ol] | 35 nM
5 | COc1cc2[nH]ncc2cc1Nc1ncnc2[nH]c(C(=O)O)c(Br)c12 [Example 48, 5-Bromo-4-[(6-methoxy-1H-indazol-5-yl)amino]-7H-pyrrolo[2,3-d]pyrimidine-6-carboxylic acid] | < 1 nM
6 | CC(C)Oc1cc2[nH]ncc2cc1Nc1ncnc2[nH]cc(C(=O)N(C)C)c12 [Example 30, N,N-Dimethyl-4-{[6-(propan-2-yloxy)-1H-indazol-5-yl]amino}-7H-pyrrolo[2,3-d]pyrimidine-5-carboxamide] | 141 nM
7 | CCOc1cc2[nH]ncc2cc1Nc1ncnc2[nH]c(CC)c(C)c12 [Example 44, N-(6-Ethoxy-1H-indazol-5-yl)-6-ethyl-5-methyl-7H-pyrrolo[2,3-d]pyrimidin-4-amine] | 3 nM
8 | COc1cc2[nH]ncc2cc1Nc1ncnc2[nH]c(C#CCO)cc12 [Example 22, 3-{4-[(6-Methoxy-1H-indazol-5-yl)amino]-7H-pyrrolo[2,3-d]pyrimidin-6-yl}prop-2-yn-1-ol] | 11 nM
